# Read-outs that look alike come from different tables or passages of the source.
# Columns and labels:
# [1] = Human Liver Microsomal Stability (Test C); type: in vitro ADME; conditions: human, liver microsomes
# Procedure: Human Liver Microsomal Stability (Test C)
# The assay was conducted according to the Human Liver Microsome Stability Assay described in pages 170-174 of Wernevik, J. et al., “A Fully Integrated Assay Panel for Early Drug Metabolism and Pharmacokinetics Profiling”, Assay and Drug Development Technologies, 2020, 18(4), 157-179. Data are reported in Table 36 as CLint (μl/min/mg protein). Where the assay was run multiple times for the same compound, the arithmetic mean is reported.
# [2] = Rat Hepatocyte Stability (Test E); type: in vitro ADME; conditions: rat, hepatocytes, geometric mean if run multiple times
# Procedure: Rat Hepatocyte Stability (Test E)
# The assay was conducted according to the Rat Hepatocyte Stability Assay described in pages 170-174 of Wernevik, J. et al., “A Fully Integrated Assay Panel for Early Drug Metabolism and Pharmacokinetics Profiling”, Assay and Drug Development Technologies, 2020, 18(4), 157-179. Data are reported in Table 36 as mean Clint(μl/min/10^6 cells). Where the assay was run multiple times for the same compound, the geometric mean is reported.
# [3] = Solubility (Test F); type: physicochemical; conditions: arithmetic mean if run multiple times
# Procedure: The assay was conducted according to the Solubility Assay described in pages 164-167 of Wernevik, J. et al., “A Fully Integrated Assay Panel for Early Drug Metabolism and Pharmacokinetics Profiling”, Assay and Drug Development Technologies, 2020, 18(4), 157-179. Data are reported in Table 36 as solubility ([…]. Where the assay was run multiple times for the same compound, the arithmetic mean is reported.
# [4] = target: T1, human RXFP1 (Homo sapiens, UniProt Q9HBX9); test: RXFP1 Hu cAMP (Test A); type: cell-based; parameters: expressed in transfected cells; host or cells: Jump-In T-REx CHO-K1 cells (ThermoFisher), induced with 10 ng/ml doxycycline for 24 h
# T1 sequence (Q9HBX9 1-757): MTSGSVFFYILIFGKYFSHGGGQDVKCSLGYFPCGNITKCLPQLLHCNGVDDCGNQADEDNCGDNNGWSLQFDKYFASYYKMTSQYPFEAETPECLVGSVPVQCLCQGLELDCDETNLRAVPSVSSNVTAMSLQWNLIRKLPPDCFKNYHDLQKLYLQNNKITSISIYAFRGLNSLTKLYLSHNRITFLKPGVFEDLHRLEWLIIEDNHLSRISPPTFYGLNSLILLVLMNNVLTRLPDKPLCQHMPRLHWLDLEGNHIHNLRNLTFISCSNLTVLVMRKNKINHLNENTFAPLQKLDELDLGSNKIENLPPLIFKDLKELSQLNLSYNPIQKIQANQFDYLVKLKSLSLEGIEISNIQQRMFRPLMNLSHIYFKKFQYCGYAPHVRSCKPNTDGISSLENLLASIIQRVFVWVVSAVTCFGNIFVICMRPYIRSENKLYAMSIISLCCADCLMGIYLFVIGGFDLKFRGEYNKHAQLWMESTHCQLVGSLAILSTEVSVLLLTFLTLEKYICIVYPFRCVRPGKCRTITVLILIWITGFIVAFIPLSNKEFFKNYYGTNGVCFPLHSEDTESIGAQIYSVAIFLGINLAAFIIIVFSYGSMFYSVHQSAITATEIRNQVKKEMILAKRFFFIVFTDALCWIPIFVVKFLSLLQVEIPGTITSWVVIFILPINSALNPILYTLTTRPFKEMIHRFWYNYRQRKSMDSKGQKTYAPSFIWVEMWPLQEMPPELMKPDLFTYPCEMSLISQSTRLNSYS
# How it was run: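 Competitive HTRF cAMP readout (2 h, room temperature) in CHO-K1 cells stably expressing human RXFP1, induced with 10 ng/ml doxycycline for 24 h; IBMX 0.5 mM final.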
# [5] = Human Plasma Protein Binding (Test B); type: in vitro ADME; conditions: fraction unbound (fu)
# Procedure: Human Plasma Protein Binding (Test B)
# The assay was conducted according to the Human Plasma Protein Binding Assay described in pages 167-170 of Wernevik, J. et al., “A Fully Integrated Assay Panel for Early Drug Metabolism and Pharmacokinetics Profiling”, Assay and Drug Development Technologies, 2020, 18(4), 157-179. Data are reported in Table 36 as fraction unbound (fu) (% free). Where the assay was run multiple times for the same compound, the arithmetic mean is reported.
# [6] = RXFP1 Hu cAMP, read-out: Test A EC50
Compound,microsomal CLint [1] [µL/min/mg],hepatocyte CLint [2] [µL/min/1e6 cells],solubility [3] [µM],"EC50 [4, 6] [µM]",Test B Human Plasma Protein Binding (% free) [5] [% free],Test A Sinf ([4]; RXFP1 Hu cAMP) [%],"EC50 ([4]; Test A EC50, RXFP1 Hu cAMP) [µM]"
COc1cc(F)c(O[C@H]2CC[C@@](C)(C(=O)O)CC2)cc1C(=O)N[C@@H]1CCC[C@@H]1C(=O)N[C@@H](C)C1(C)CC1 (racemic) [Example 63],11,19,610,> 50,–,–,–
"COc1cc(F)c(O[C@H]2CC[C@@](C)(C(=O)O)CC2)cc1C(=O)N[C@@H]1[C@H]2CC[C@H](C2)[C@@H]1C(=O)NCC1(C)CCC1 [Example 1, (1S,4s)-4-(2-Fluoro-4-methoxy-5-(((1S,2R,3S,4R)-3-(((1-methylcyclobutyl)methyl)carbamoyl)bicyclo[2.2.1]heptan-2-yl)carbamoyl)phenoxy)-1-methylcyclohexane-1-carboxylic acid]",–,–,> 500,–,4.3,–,–
"COc1cc(F)c(O[C@H]2CC[C@@](C)(C(=O)O)CC2)cc1C(=O)N[C@H]1[C@@H]2CC[C@@H](C2)[C@H]1C(=O)NCC1(C)CCC1 [Example 3, (1R,4s)-4-(2-Fluoro-4-methoxy-5-(((1R,2S,3R,4S)-3-(((1-methylcyclobutyl)methyl)carbamoyl)bicyclo[2.2.1]heptan-2-yl)carbamoyl)phenoxy)-1-methylcyclohexane-1-carboxylic acid]",–,–,860,–,3.7,–,–
"CC1(CNC(=O)[C@H]2[C@@H]3CC[C@@H](C3)[C@H]2NC(=O)c2cc(O[C@H]3CC[C@@](C)(C(=O)O)CC3)c(F)cc2OCF)CCC1 [Example 4, (1S,4s)-4-(2-Fluoro-4-(fluoromethoxy)-5-(((1S,2R,3S,4R)-3-(((1-methylcyclobutyl)methyl)carbamoyl)bicyclo[2.2.1]heptan-2-yl)carbamoyl)phenoxy)-1-methylcyclohexane-1-carboxylic acid]",36,6.9,> 1000,–,–,103,0.0047
COc1cc(F)c(O[C@H]2CC[C@@H](C(=O)O)CC2)cc1C(=O)N[C@@H]1[C@H]2CC[C@H](C2)[C@@H]1C(=O)Nc1cc(C(F)(F)F)ccc1Cl [Example 26],31,38,250,0.19,–,105,–
COc1cc(F)c(O[C@H]2CC[C@@](C)(C(=O)O)CC2)cc1C(=O)N[C@@H]1[C@H]2CC[C@H](C2)[C@@H]1C(=O)N[C@@H](C)C(C)(C)C [Example 45],15,12,960,–,6.9,–,–
"COc1cc(F)c(O[C@H]2CC[C@@](C)(C(N)=O)CC2)cc1C(=O)N[C@@H]1[C@H]2CC[C@H](C2)[C@@H]1C(=O)NCC(C)(C)C [Example 53, (1R,2S,3R,4S)-3-(5-(((1s,4S)-4-Carbamoyl-4-methylcyclohexyl)oxy)-4-fluoro-2-methoxybenzamido)-N-neopentylbicyclo[2.2.1]heptane-2-carboxamide]",130,150,39,0.16,–,122,–
"COc1cc(F)c(O[C@H]2CC[C@@](C)(C(=O)O)CC2)cc1C(=O)N[C@@H]1CCC[C@@H]1C(=O)N[C@@H](C)C(C)C [Example 55, (1S,4s)-4-(2-Fluoro-4-methoxy-5-(((1R,2S)-2-(((S)-3-methylbutan-2-yl)carbamoyl)cyclopentyl)carbamoyl)phenoxy)-1-methylcyclohexane-1-carboxylic acid]",< 3,16,> 1000,> 8.4,–,100,–
"COc1cc(F)c(O[C@H]2CC[C@@](C)(C(=O)O)CC2)cc1C(=O)N[C@@H]1CCC[C@@H]1C(=O)NCC(C)(C)C [Example 57, (1S,4s)-4-(2-Fluoro-4-methoxy-5-(((1R,2S)-2-(neopentylcarbamoyl)cyclopentyl)carbamoyl)phenoxy)-1-methylcyclohexane-1-carboxylic acid]",4.9,11,> 1000,0.66,–,99,–
COc1cc(F)c(O[C@H]2CC[C@@](C)(C(=O)O)CC2)cc1C(=O)N[C@@H]1CCC[C@@H]1C(=O)N[C@H](C)C(C)C [Example 60],7,11,> 1000,–,–,105,–
COc1cc(F)c(O[C@H]2CC[C@@](C)(C(=O)O)CC2)cc1C(=O)N[C@@H]1CCC[C@@H]1C(=O)N[C@@H](C)C(C)(C)C [Example 61],7.4,13,> 1000,15,–,96,–
COc1cc(F)c(O[C@H]2CC[C@@](C)(C(=O)O)CC2)cc1C(=O)N[C@@H]1CCC[C@@H]1C(=O)NC(C(C)C)C(C)C [Example 62],94,55,> 1000,> 4.2,–,93,–
COc1cc(F)c(O[C@H]2CC[C@@](C)(C(=O)O)CC2)cc1C(=O)N[C@@H]1CCC[C@@H]1C(=O)NCC1(C)CCCCC1 [Example 64],74,67,870,–,–,107,–
COc1cc(F)c(O[C@H]2CC[C@@](C)(C(=O)O)CC2)cc1C(=O)N[C@@H]1CCC[C@@H]1C(=O)NCC(C)C [Example 66],< 3,12,> 1000,–,–,101,–
"COc1cc(F)c(O[C@H]2C[C@@](C)(C(=O)O)C2)cc1C(=O)N[C@@H]1[C@H]2CC[C@H](C2)[C@@H]1C(=O)NCC1(C)CCC1 [Example 149, (1S,3s)-3-(2-fluoro-4-methoxy-5-(((1S,2R,3S,4R)-3-(((1-methylcyclobutyl)methyl)carbamoyl)bicyclo[2.2.1]heptan-2-yl)carbamoyl)phenoxy)-1-methylcyclobutane-1-carboxylic acid]",7.6,11,840,–,11,–,–
"COc1cc(F)c(C[C@H]2CC[C@@](C)(C(=O)O)CC2)cc1C(=O)N[C@@H]1[C@H]2CC[C@H](C2)[C@@H]1C(=O)NCC1(C)CCC1 [Example 204, (1S,4s)-4-(2-fluoro-4-methoxy-5-(((1S,2R,3S,4R)-3-(((1-methylcyclobutyl)methyl)carbamoyl)bicyclo[2.2.1]heptan-2-yl)carbamoyl)benzyl)-1-methylcyclohexane-1-carboxylic acid]",78,18,61,–,0.29,–,–
COc1cc(F)c(-c2ccc(CCC(=O)O)cc2)cc1C(=O)N[C@@H]1[C@H]2CC[C@H](C2)[C@@H]1C(=O)Nc1cccc(S(=O)(=O)C(F)(F)F)c1 [Example 244],53,36,240,0.1,–,111,–
COc1cc(F)c(-c2ccc(C(=O)O)c(C)c2)cc1C(=O)N[C@@H]1[C@H]2CC[C@H](C2)[C@@H]1C(=O)Nc1cccc(S(=O)(=O)C(F)(F)F)c1 [Example 246],20,16,860,–,–,85,–

# — patent US11667602B2, “Compounds and their use” (AstraZeneca AB, priority 2020, dated 2023)
